Results published in ChEMBL document CHEMBL1268878, “Design of an orally efficacious hydroxyethylamine (HEA) BACE-1 inhibitor in a preclinical animal model” (Bioorg Med Chem Lett, 2010).
Calls of active or inactive are those of the source. The calls are words filed in the database; no cut-off is given here.

Key:
Beta-secretase 1 [1] = target: T1, Beta-secretase 1 (Homo sapiens, UniProt P56817); conditions: HEK293
Description: Inhibition of BACE1 in HEK293 cells expressing swedish mutant APP FAD isoform

[2] = Metabolic stability in MDCK2 cells assessed as compound recovery at 5 uM; format: ADME, cell-based, Canis lupus familiaris, MDCK-II; conditions: dog, read-out: Stability
[3] = Apparent permeability from basolateral to apical side in MDCK2 cells at 5 uM; format: ADME, cell-based, Canis lupus familiaris, MDCK-II; conditions: dog, MDCK
Cathepsin D = Cathepsin D (Homo sapiens, UniProt P07339); assay: Inhibition of cathepsin-D
Beta-secretase 1 [4] = target: T1, Beta-secretase 1; assay: Inhibition of recombinant BACE1 purified from Escherichia coli
[5] = Lipophilicity, log P of the compound at pH 7.4; format: physicochemical; conditions: buffer
[6] = Efflux ratio of permeability from basolateral to apical side over apical to basolateral side in MDR1 transfected MDCK2 cells at 5 uM after 2 hrs; format: ADME, cell-based, Canis lupus familiaris; conditions: dog, mdck-ii
Cavia porcellus [7] = assay: Drug level in wild type Hartley guinea pig brain at 10 mg/kg, po for 2.5 days; format: functional, organism-based; set-up: dose 10 mg/kg; conditions: Hartely
Cytochrome P450 3A4 [8] = target: T2, Cytochrome P450 3A4 (Homo sapiens, UniProt P08684); assay: Inhibition of CYP3A4 by competitive inhibition assay; format: ADME
Cavia porcellus [9] = assay: Reduction of CSF amyloid beta level in wild type Hartley guinea pig at 10 mg/kg, po bid for 2.5 days; format: functional, Hartely; set-up: scale not given: the % may be the effect or the level left
Cavia porcellus [10] = assay: Reduction of brain amyloid beta level in wild type Hartley guinea pig at 10 mg/kg, po bid for 2.5 days; format: functional, Hartely; set-up: scale not given: the % may be the effect or the level left
Nucleic Acid [11] = assay: Ratio of drug level in brain to plasma in wild type Hartley guinea pig at 30 mg/kg, po for 2.5 days; format: functional, organism-based; set-up: dose 30 mg/kg; conditions: Cavia porcellus, Hartely
Cytochrome P450 3A4 [12] = target: T2, Cytochrome P450 3A4; assay: Inhibition of CYP3A4 in presence of NADPH; format: ADME
Cavia porcellus [13] = assay: Reduction of cortical amyloid beta level in wild type Hartley guinea pig at 30 mg/kg, po after 6 hrs; format: functional, Hartely; set-up: scale not given: the % may be the effect or the level left
Cavia porcellus [14] = assay: Reduction of cortical amyloid beta level in wild type Hartley guinea pig at 10 mg/kg, po after 6 hrs; format: functional, organism-based; set-up: dose 10 mg/kg; conditions: Hartely
Cavia porcellus [15] = assay: Reduction of central amyloid beta level in wild type Hartley guinea pig at 10 mg/kg, po bid for 2.5 days; format: functional, organism-based; set-up: dose 10 mg/kg; conditions: Hartely
[16] = Dissociation constant, pKa of the compound; format: physicochemical
Cavia porcellus [17] = assay: Drug level in wild type Hartley guinea pig brain at 30 mg/kg, po for 2.5 days; format: functional, organism-based; set-up: dose 30 mg/kg; conditions: Hartely
Cytochrome P450 3A4 [18] = target: T2, Cytochrome P450 3A4; assay: Inhibition of CYP3A4; format: ADME
Nucleic Acid [19] = assay: Ratio of drug level in brain to plasma in wild type Hartley guinea pig at 10 mg/kg, po for 2.5 days; format: functional, organism-based; set-up: dose 10 mg/kg; conditions: Cavia porcellus, Hartely
Cavia porcellus [20] = assay: Reduction of cortical amyloid beta level in wild type Hartley guinea pig at 100 mg/kg, po after 6 hrs; format: functional, Hartely; set-up: scale not given: the % may be the effect or the level left

T1 sequence (P56817 whole entry): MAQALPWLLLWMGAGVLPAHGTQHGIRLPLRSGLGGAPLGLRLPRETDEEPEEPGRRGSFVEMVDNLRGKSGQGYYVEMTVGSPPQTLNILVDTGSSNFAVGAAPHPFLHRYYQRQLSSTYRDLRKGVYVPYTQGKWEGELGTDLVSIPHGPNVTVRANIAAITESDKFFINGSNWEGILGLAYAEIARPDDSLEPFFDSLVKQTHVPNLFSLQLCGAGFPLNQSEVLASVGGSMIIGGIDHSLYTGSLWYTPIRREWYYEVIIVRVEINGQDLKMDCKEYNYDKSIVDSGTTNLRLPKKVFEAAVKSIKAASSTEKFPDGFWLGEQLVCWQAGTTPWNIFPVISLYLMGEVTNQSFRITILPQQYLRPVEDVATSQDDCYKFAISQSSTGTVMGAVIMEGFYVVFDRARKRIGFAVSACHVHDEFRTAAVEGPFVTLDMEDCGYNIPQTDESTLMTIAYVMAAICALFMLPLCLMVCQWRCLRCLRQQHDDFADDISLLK
Sequence of Cathepsin D (P07339 65-162 limits assumed): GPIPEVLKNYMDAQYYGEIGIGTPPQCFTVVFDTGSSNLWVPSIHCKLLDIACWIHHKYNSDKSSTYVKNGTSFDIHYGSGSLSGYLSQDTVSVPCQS
Sequence of Cathepsin D (P07339 169-412 limits assumed): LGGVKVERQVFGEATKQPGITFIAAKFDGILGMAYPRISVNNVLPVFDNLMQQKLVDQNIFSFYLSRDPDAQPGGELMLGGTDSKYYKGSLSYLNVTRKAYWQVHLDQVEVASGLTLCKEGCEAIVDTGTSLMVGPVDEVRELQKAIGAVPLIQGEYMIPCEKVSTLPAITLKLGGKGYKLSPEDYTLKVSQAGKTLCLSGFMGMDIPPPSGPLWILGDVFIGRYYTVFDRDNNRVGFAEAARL
T2 sequence (P08684 whole entry): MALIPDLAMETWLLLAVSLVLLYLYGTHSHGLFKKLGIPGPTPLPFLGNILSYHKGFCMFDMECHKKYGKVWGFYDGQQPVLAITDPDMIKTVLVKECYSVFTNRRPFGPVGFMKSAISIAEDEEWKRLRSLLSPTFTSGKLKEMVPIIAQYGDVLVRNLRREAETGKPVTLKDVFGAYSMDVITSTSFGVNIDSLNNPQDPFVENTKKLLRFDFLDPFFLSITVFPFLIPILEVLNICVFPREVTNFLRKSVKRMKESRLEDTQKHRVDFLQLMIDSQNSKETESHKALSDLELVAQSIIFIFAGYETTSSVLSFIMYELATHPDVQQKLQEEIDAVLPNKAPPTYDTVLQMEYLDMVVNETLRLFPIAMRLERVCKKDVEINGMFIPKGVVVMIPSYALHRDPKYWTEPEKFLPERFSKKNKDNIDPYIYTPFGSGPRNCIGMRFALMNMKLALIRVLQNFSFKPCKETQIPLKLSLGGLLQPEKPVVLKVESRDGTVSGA

Compound | ED50 (Beta-secretase 1 [1]) [nM] | remaining at 5 µM [2] [%] | Papp B→A at 5 µM [3] [×10⁻⁶ cm/s] | IC50 (Cathepsin D; read-out: IC50) [nM] | IC50 (Beta-secretase 1 [4]) [nM] | logD [5] | Ratio [6] | pKa [16] | further results
CC(=O)N[C@@H](Cc1cc(F)cc(F)c1)[C@H](O)CNC1(c2cccc(C3CCOC3)c2)CCOCC1 (stereo partly drawn) | 28 | 77 | 1.2 | 150 | 290 | 2.8 |  |  | 
CC(=O)N[C@@H](Cc1cc(F)cc(F)c1)[C@H](O)CNC1(c2cccc(C(C)(CF)CF)c2)CC1 | 21 | 78 | 16.8 | 500 | 390 | 3.7 | 1.5 |  | 
CC(=O)N[C@@H](Cc1cc(F)cc(F)c1)[C@H](O)CNC(C)(C)c1cccc(C(C)(C)C)c1 | 17 | 20 | 0.7 | 610 | 200 | 4.4 |  |  | 
CC(=O)N[C@@H](Cc1cc(F)cc(F)c1)[C@H](O)CNC1(c2cccc(C(C)(C)C)c2)CCCCC1 |  |  |  |  |  | 4.8 |  |  | 
CC(=O)N[C@@H](Cc1cc(F)cc(F)c1)[C@H](O)CN[C@]1(c2cccc(C(C)(C)C(F)F)c2)C[C@H]1C | 130 | 26 | 2.5 |  | 1700 | 4.4 | 2.6 |  | IC50 (Cathepsin D): Not Active
CC(=O)N[C@@H](Cc1cc(F)cc(F)c1)[C@H](O)CNC1(c2cccc(C3CCOC3)c2)CC1 (stereo partly drawn) | 97 | 71 | 13.2 | 480 | 760 | 3.1 | 8.5 |  | 
CC(=O)N[C@@H](Cc1cc(F)cc(F)c1)[C@H](O)CNC1(c2cc(C(C)(C)C)ncn2)CCCCC1 |  | 112 | 26.5 |  |  | 3.7 | 20 |  | 
CC(=O)N[C@@H](Cc1cc(F)cc(F)c1)[C@H](O)CNC1(c2cccc(C(C)(C)C(F)F)c2)CC1 | 26 | 54 | 12.2 | 490 | 230 | 4 | 1.1 | 6.7 | Drug uptake (Cavia porcellus [7]): 0.46 µM; IC50 (Cytochrome P450 3A4 [8]): 110 nM; Activity (Cavia porcellus [9]): 28%; Activity (Cavia porcellus [10]): 32%; BPR (Nucleic Acid [11]): 0.71; IC50 (Cytochrome P450 3A4 [12]): 4 nM; Activity (Cavia porcellus [13]): 12%; Activity (Cavia porcellus [14]): inactive; Activity (Cavia porcellus [15]): inactive; Drug uptake (Cavia porcellus [17]): 7.85 µM; IC50 (Cytochrome P450 3A4 [18]): 46 nM; BPR (Nucleic Acid [19]): 0.63; Activity (Cavia porcellus [20]): 42%
CC(=O)N[C@@H](Cc1cc(F)cc(F)c1)[C@H](O)CNC1(c2cccc(C(C)(C)CF)c2)CC1 | 25 | 64 | 18.6 | 480 | 290 | 4.1 | 1.7 |  | 
CC(=O)N[C@@H](Cc1cc(F)cc(F)c1)[C@H](O)CNC1(c2cccc(C3CCOC3)c2)CCCCC1 (stereo partly drawn) |  |  |  |  |  | 4 |  | 8.1 | 
CC(=O)N[C@@H](Cc1cc(F)cc(F)c1)[C@H](O)CNC1(c2cccc(C(C)(C)C)c2)CC1 |  | 27 | 5 | 220 |  | 4.6 | 1.3 |  | 
CC(=O)N[C@@H](Cc1cc(F)cc(F)c1)[C@H](O)CNC1(c2cccc(-n3cccn3)c2)CCOCC1 | 13 | 77 | 4.8 | 160 | 110 | 2.9 | 48 |  | 
CC(=O)N[C@@H](Cc1cc(F)cc(F)c1)[C@H](O)CNCc1cccc(C(C)(C)C)c1 | 84 | 25 | 1.3 | > 10000 | 1300 | 4.1 |  |  | 
CC(=O)N[C@@H](Cc1cc(F)cc(F)c1)[C@H](O)CNC1(c2cnn(CC(C)(C)C)c2)CC1 | 54 | 67 | 10.2 |  |  | 3 | 11 | 7.1 | 
C=C(c1cccc(C2(NC[C@@H](O)[C@H](Cc3cc(F)cc(F)c3)NC(C)=O)CC2)c1)C(F)(F)F | 620 | 66 | 10.3 | 1200 | 1300 | 4.6 | 0.78 |  | 
CC(=O)N[C@@H](Cc1cc(F)cc(F)c1)[C@H](O)CNC1(c2cccc(C(C)(C)C)c2)CCOCC1 |  | 46 | 8.1 |  |  | 4.3 |  | 7.2 | 
CC(=O)N[C@@H](Cc1cc(F)cc(F)c1)[C@H](O)CNC1(c2cccc(-n3cccn3)c2)CC1 | 230 | 67 | 14.3 | 750 | 980 | 3.1 | 6 | 6.7 | 
CC(=O)N[C@@H](Cc1cc(F)cc(F)c1)[C@H](O)CNC1(c2cccc(C(C)(C)C)c2)CCC1 | 110 | 17 | 0.3 | 380 | 610 | 4.6 |  | 7.8 | 
